Source: patent publication US7456288B2, “Heterocyclic compounds and methods of making and using thereof” (Reddy US Therapeutics, Inc., priority 2003, dated 2008)
One block for each compound: values may come before it.

Experiments:
IL-6 = test: Glycated albumin-stimulated endothelial cell production of cytokine IL-6 (ELISA); type: cell-based; details: read-out: % of inhibition of proinflammatory cytokine IL-6
Description: The effectiveness of the compounds of the present invention in inhibiting glycated protein- and AGE-induced inflammation can be determined using the assays described herein and in U.S. Provisional Patent Application Ser. No. 60/259,306, which is incorporated by reference in herein its entirety. Such assays comprise measurement of the specific activity of biological components involved in a known cellular response. The assays provide a measurable response in which the activity of the compounds is determined. One aspect of the present invention comprises measurement of the effects of compounds on an inflammatory response by cells to the presence of a stimulating agent. […] The amount of cytokines produced is determined by measurement protocols known to those skilled in the art. The compounds of the present invention are then added to the assay and the production of cytokines is measured. From the comparison of the assay without the compound with the assay with the compound, the biological effect of the compound can be determined. […]
Assays comprise endothelial cells that are stimulated in an inflammatory response by the presence of the glycated protein, glycated human serum albumin. […] Preferably, although not required, the amount of cytokine produced is determined using immunological methods, such as ELISA assays. […]

MCP-1 = test: Glycated albumin-stimulated endothelial cell production of cytokine MCP-1 (ELISA); type: cell-based; details: read-out: % of inhibition of proinflammatory cytokine MCP-1; for inhibition at 5 µM: concentration 5 μM
Description: The effectiveness of the compounds of the present invention in inhibiting glycated protein- and AGE-induced inflammation can be determined using the assays described herein and in U.S. Provisional Patent Application Ser. No. 60/259,306, which is incorporated by reference in herein its entirety. Such assays comprise measurement of the specific activity of biological components involved in a known cellular response. The assays provide a measurable response in which the activity of the compounds is determined. One aspect of the present invention comprises measurement of the effects of compounds on an inflammatory response by cells to the presence of a stimulating agent. Yet another aspect of the present invention includes an assay comprising endothelial cells that are stimulated by the addition of a glycated protein, the stimulating agent. The endothelial cells respond by producing specific cytokines. The amount of cytokines produced is determined by measurement protocols known to those skilled in the art. The compounds of the present invention are then added to the assay and the production of cytokines is measured. From the comparison of the assay without the compound with the assay with the compound, the biological effect of the compound can be determined. The compound may have an inhibitory effect, a stimulatory effect, or no effect at all. Compounds for treatment of inflammation include those that have an inhibitory effect.
Assays comprise endothelial cells that are stimulated in an inflammatory response by the presence of the glycated protein, glycated human serum albumin. Such endothelial cells produce cytokines. A method in accordance with the present invention comprises measurement of the amount of the cytokine IL-6, and another aspect of the present invention comprises measurement of the amount of the cytokine MCP-1. Preferably, although not required, the amount of cytokine produced is determined using immunological methods, such as ELISA assays. The methods of the present invention are not limited by the type of assay used to measure the amount of cytokine produced, and any methods known to those skilled in the art and later developed can be used to measure the amount of cytokines produced in response to the stimulating agent and to the compound having unknown activity.
Glycated albumin stimulates endothelial production of IL-6 and MCP-1. […] Because of the well established role of these cytokines in vascular diseases, screening for compounds that block AGE-induction of these cytokines provides a novel approach for identifying therapeutic agents that block AGE-induced inflammation in vivo.
Once the baseline response to the stimulating agent for the production of cytokines by the endothelial cells is established, thus comprising the control levels for the screening assay, the methods comprise addition of compounds having unknown activities. The effect of the compound on the baseline response is determined by comparing the amount of cytokine produced in the presence of the stimulating agent and the amount of cytokine produced in the presence of the stimulating agent and the compound of the present invention. In one method, compounds that have inhibitory effects on the inflammation of the cells in the presence of glycated albumin are then used as therapeutic agents. One or more compounds may be added to the screening assay. Combinations or mixtures of compounds can be added. Different amounts and formulations of the compounds are added to determine the effects on the screening assay. The screening assay also may be used to determine stimulatory compounds or compounds that have no effects in the assay.

SMILES: C/C(=C1\SC(=O)NC1=O)c1ccc(OCCOc2c(-c3ccc(Cl)cc3)n(C)c3ccccc3c2=O)cc1
inhibition at 5 µM (IL-6; concentration 5 μM): 49%

SMILES: C/C(=C1\SC(=O)NC1=O)c1ccc(OCCOc2c(-c3ccc(F)cc3)n(C)c3ccccc3c2=O)cc1 [drawing 117]
inhibition at 4.64 µM (IL-6; concentration 4.64 μM): 50%

melting point: 215 to 218 °C
SMILES: CCCc1nn(C)c2c(=O)n(CCNc3ccc(/C(C)=C4\SC(=O)NC4=O)cc3)c(-c3ccc(OC)c(OC)c3)nc12 [Example 46, 5-[(E,Z)-1-(4-{2-[5-(3,4-Dimethoxyphenyl)-1-methyl-7-oxo-3-propyl-6,7-dihydro-1H-pyrazolo[4,3-d]pyrimidin-6-yl]ethylamino}phenyl)ethylidene]1,3-thiazolane-2,4-dione]

SMILES: C/C(=C1\SC(=O)NC1=O)c1ccc(OCCOc2c(-c3ccc(F)cc3)n(C)c3ccccc3c2=O)cc1 [drawing 118]
inhibition at 7.9 µM (MCP-1; concentration 7.9 μM): 50%

SMILES: CCn1c(-c2ccc(F)cc2)c(OCCOc2ccc(/C(C)=C3/SC(=O)NC3=O)cc2)c(=O)c2ccccc21
inhibition at 6.5 µM (MCP-1; concentration 6.5 μM): 50%

SMILES: C/C(=C1/SC(=O)NC1=O)c1ccc(OCCOc2c(-c3ccc(F)c(F)c3)n(C)c3ccccc3c2=O)c(Cl)c1
inhibition at 5 µM (MCP-1): 61%

SMILES: Cn1c(-c2ccc(Br)cc2)c(OCCOc2ccc(/C=C3/SC(=O)NC3=O)cc2)c(=O)c2ccccc21
inhibition at 5 µM (MCP-1): 44%

SMILES: C/C(=C1\SC(=O)NC1=O)c1ccc(OCCOc2c(-c3ccc(F)c(F)c3)n(C)c3ccccc3c2=O)c(F)c1
inhibition at 7 µM (MCP-1; concentration 7 μM): 50%

SMILES: C/C(=C1\SC(=O)NC1=O)c1ccc(OCCOc2c(-c3ccc(F)c(F)c3)n(C)c3ccccc3c2=O)cc1
inhibition at 4.4 µM (MCP-1; concentration 4.4 μM): 50%

melting point: 205 to 206 °C
SMILES: COc1cc(OC)c2c(=O)c(OCCOc3ccc(/C(C)=C4\SC(=O)NC4=O)cc3)c(-c3ccc(OC)c(OC)c3)oc2c1 [Example 1, 5-[-1-(4-{2-[2-(3,4-Dimethoxyphenyl)-5,7-dimethoxy-4-oxo-4h-3-chromenyloxy]ethoxy}phenyl)ethylidene]-1,3-thiazolane-2,4-dione]
